What was measured:
Adipoq−/− mice = test: Mouse hair cycle modulation, histology and anagen induction score, Adipoq−/− mice; format: in vivo; conditions: Unpaired t-test
Description: We also evaluated P5 effect in Adipoq ^−/− mouse (Ma et al, [2002]). […] Skin pigmentation was prominent in P5‐treated Adipoq ^−/− mice at day 14 (Fig 4E). […] At day 35, unlike vehicle‐treated Adipoq ^−/− mice showing little pigmentation, P5‐treated Adipoq ^−/− mice manifested hairs with pigmentation (Fig 4E). […] The DP cells in P5‐treated Adipoq ^−/− mice expressed versican (Fig 4G).
(§1) Paraffin‐embedded mouse cutaneous back tissue was sectioned (4 μm thickness) and stained with hematoxylin and eosin. […] IF intensity was observed and recorded with a Nikon Eclipse Ni‐E fluorescence microscope (Nikon).
For the hair cycle modulation experiment, Adipoq ^−/− (stock #008195; JAX) (Ma et al, [2002]), Adipor1 ^−/− (Yamauchi et al, [2007]; Okada‐Iwabu et al, [2013]), or C57BL/6 (KOATECH) female mice was used (Müller‐Röver et al, [2001]). […] The mouse hair growth score (a value from 0 to 100 based on the skin pigmentation and hair shaft density) was monitored and documented at designated days with the experimenters being blind to the conditions, following a previous study (Chai et al, [2019]). […] On day 35, we obtained dorsal cutaneous tissue for histological analysis: anagen induction scores (calculated using an assigned arbitrary score; telogen = 1, anagen I–VI = 2–7) (Müller‐Röver et al, [2001]).

HGF mRNA = test: qRT-PCR growth factor gene expression in DP cells, HGF; format: cell-based, human; conditions: for mRNA_HGF: DP cells
Description: Next, we investigated the downstream effects of P5 on hair growth factor genes and proteins in DP cells. […] We tested whether P5 can also increase the mRNA levels and proteins of hair growth factors in DP cells: IGF‐1, VEGF, HGF, platelet‐derived growth factor alpha (PDGFA), and fibroblast growth factor (FGF) 7, which are known to induce or maintain the anagen phase of the hair cycle (Jindo et al, [1994]; Philpott et al, [1994]; Yano et al, [2001]; Jang, [2005]; Tomita et al, [2006]; Iino et al, [2007]).
Total RNA was isolated from P5‐treated DP cells using RNAiso Plus (#9109; TaKaRa). We used the total RNA (1 µg) for cDNA synthesis using a RevertAid First Strand cDNA Synthesis Kit (Thermo Fisher) according to the manufacturer's instructions. The mRNA expression levels were quantified on a 7500 Real‐time PCR System (Thermo Fisher) using TB Green Premix Ex Taq (TaKaRa Bio): human IGF‐1, VEGF, HGF, PDGFA, FGF7, and glyceraldehyde 3‐phosphate dehydrogenase (GAPDH) (Appendix Table S2). The relative expression levels of each gene were determined by the 2^‐ΔΔCT method.

Adipor1−/− mice = test: Mouse hair cycle modulation, histology and anagen induction score, Adipor1−/− mice; format: in vivo
Description: To test whether the effect of P5 is mediated through AdipoR1 in vivo, we used Adipor1 ^−/− mice (Yamauchi et al, [2007]; Okada‐Iwabu et al, [2013]). […] Consistently, the anagen induction effects of P5 was abolished in the Adipor1 ^−/− mice (Fig 4I and J), in contrast to in WT mouse (Appendix Fig S2). […] Taken together, topical P5 treatment can accelerate hair growth through AdipoR1 in vivo.
as §1
For the hair cycle modulation experiment, Adipoq ^−/− (stock #008195; JAX) (Ma et al, [2002]), Adipor1 ^−/− (Yamauchi et al, [2007]; Okada‐Iwabu et al, [2013]), or C57BL/6 (KOATECH) female mice was used (Müller‐Röver et al, [2001]). […] The mouse hair growth score (a value from 0 to 100 based on the skin pigmentation and hair shaft density) was monitored and documented at designated days with the experimenters being blind to the conditions, following a previous study (Chai et al, [2019]). […] On day 35, we obtained dorsal cutaneous tissue for histological analysis: anagen induction scores (calculated using an assigned arbitrary score; telogen = 1, anagen I–VI = 2–7) (Müller‐Röver et al, [2001]). […]

## GLYYF [P5, GST-fused (GST-P5) in pulldown assays]
Adipoq−/− mice
  Anagen induction score vs vehicle: significantly higher
HGF mRNA; P5 5μM, relative to Control = 1, replicate 1
  mRNA_HGF: 3.441
HGF mRNA; P5 5μM, relative to Control = 1, replicate 2
  mRNA_HGF: 1.115
HGF mRNA; P5 5μM, relative to Control = 1, replicate 3
  mRNA_HGF: 3.233
HGF mRNA; P5 5μM, relative to Control = 1, replicate 4
  mRNA_HGF: 5.51
HGF mRNA; P5 5μM, relative to Control = 1, replicate 5
  mRNA_HGF: 1.947
HGF mRNA; P5 5μM, relative to Control = 1, replicate 6
  mRNA_HGF: 1.893
HGF mRNA; P5 25μM, relative to Control = 1, replicate 1
  mRNA_HGF: 6.428
HGF mRNA; P5 25μM, relative to Control = 1, replicate 2
  mRNA_HGF: 1.581
HGF mRNA; P5 25μM, relative to Control = 1, replicate 3
  mRNA_HGF: 2.359
HGF mRNA; P5 25μM, relative to Control = 1, replicate 4
  mRNA_HGF: 5.518
HGF mRNA; P5 25μM, relative to Control = 1, replicate 5
  mRNA_HGF: 2.408
HGF mRNA; P5 25μM, relative to Control = 1, replicate 6
  mRNA_HGF: 2.218
HGF mRNA; P5-treated DP cells, n = 6
  HGF mRNA expression: significantly increased
Adipor1−/− mice
  Histology / anagen induction score vs vehicle: anagen HF was not found
